# Legend:
# Experiment in all cases: FICI of F332 with antibiotics
# Assay type in all cases: cell-based, S. aureus
# MRSA strain 1344 = tested on: MRSA strain 1344
# [1] = tested on: MRSA strain #1717 (ATCC strain)
# MRSA strain 3589 = tested on: MRSA strain 3589
# MRSA strain 2895 = tested on: MRSA strain 2895
# MRSA strain 2901 = tested on: MRSA strain 2901
# MRSA strain 417 = tested on: MRSA strain 417
# MRSA strain 757 = tested on: MRSA strain 757
# Protocol: The bacterial strains used in this study were clinically isolated MRSA strains USA300#757 and #2960 which were obtained from our laboratory. Determination of the Fractional Inhibitory Concentration Index (FICI) was adopted by the Müller-Hinton broth (MHB) dilution method as previously described. Twelve serial two-fold dilutions of PC190723, F332 and F361 were prepared in the 96-well microplate with concentration ranging from 512 to 0.25 μg/mL. […] Lastly, the compounds and the β-lactams were mixed at a 1:1 ratio and subjected to two-fold dilution as described previously. Each microplate well contained 100 μL of MHB supplemented with compounds alone, β-lactams alone or the mixture of compounds and β-lactams. Overnight cultures of S. aureus in the Müller-Hinton broth was diluted to OD595 of 0.08-0.1 in saline and added in each of the microplate well. The plates were incubated at 37° C. for 20 h. All tests were performed in duplicate and the inhibition of bacterial growth was determined by visualization. The FICI of compounds and β-lactams were calculated as followed: FICI=(MIC of combination of compound and β-lactam/MIC of compound alone)+(MIC of combination of compound and β-lactam/MIC of β-lactam alone).
smiles,measurement,setting,value
"CCCCCCCCCNc1ccc(F)c(C(N)=O)c1F [Compound F332, 2,6-difluoro-3-(nonylamino)benzamide]",FICI of F332 combined with Amoxicillin,MRSA strain 1344,1.13
same,FICI of F332 combined with Cefuroxime,MRSA strain 1344,0.27
same,FICI of F332 combined with Cloxacillin,MRSA strain 1344,0.13
same,FICI of F332 combined with Meropenem,MRSA strain 1344,2.00
same,FICI of F332 combined with Meticillin,MRSA strain 1344,0.27
same,FICI of F332 combined with Amoxicillin,[1],1.06
same,FICI of F332 combined with Cefuroxime,[1],1.13
same,FICI of F332 combined with Cloxacillin,[1],2.50
same,FICI of F332 combined with Meropenem,[1],3.00
same,FICI of F332 combined with Meticillin,[1],1.13
same,FICI of F332 combined with Amoxicillin,MRSA strain 3589,1.06
same,FICI of F332 combined with Cefuroxime,MRSA strain 3589,0.25
same,FICI of F332 combined with Cloxacillin,MRSA strain 3589,0.31
same,FICI of F332 combined with Meropenem,MRSA strain 3589,1.50
same,FICI of F332 combined with Meticillin,MRSA strain 3589,0.52
same,FICI of F332 combined with Amoxicillin,MRSA strain 2895,1.06
same,FICI of F332 combined with Cefuroxime,MRSA strain 2895,0.31
same,FICI of F332 combined with Cloxacillin,MRSA strain 2895,0.38
same,FICI of F332 combined with Meropenem,MRSA strain 2895,2.13
same,FICI of F332 combined with Meticillin,MRSA strain 2895,0.31
same,FICI of F332 combined with Amoxicillin,MRSA strain 2901,0.06
same,FICI of F332 combined with Cefuroxime,MRSA strain 2901,0.13
same,FICI of F332 combined with Cloxacillin,MRSA strain 2901,0.25
same,FICI of F332 combined with Meropenem,MRSA strain 2901,4.01
same,FICI of F332 combined with Meticillin,MRSA strain 2901,0.01
same,FICI of F332 combined with Amoxicillin,MRSA strain 417,0.27
same,FICI of F332 combined with Cefuroxime,MRSA strain 417,0.06
same,FICI of F332 combined with Cloxacillin,MRSA strain 417,0.09
same,FICI of F332 combined with Meropenem,MRSA strain 417,0.19
same,FICI of F332 combined with Meticillin,MRSA strain 417,0.06
same,FICI of F332 combined with Amoxicillin,MRSA strain 757,0.27
same,FICI of F332 combined with Cefuroxime,MRSA strain 757,0.08
same,FICI of F332 combined with Cloxacillin,MRSA strain 757,0.13
same,FICI of F332 combined with Meropenem,MRSA strain 757,1.06
same,FICI of F332 combined with Meticillin,MRSA strain 757,0.09

# — patent publication US20170348258A1, “3-Amino Benzamide Derivative Serving As B-Lactam Auxiliary Antibiotic, Preparation Method and Use Thereof” (THE HONG KONG POLYTECHNIC UNIVERSITY, priority 2014, published 2017)
